Assay results published in the supplement of paper PMC8149375.

How the values were obtained:
Conditions in all cases: treatment: drug alone; 5 days
TK-10 [1] = assay: GI50, drug alone; higher = less potent
Procedure: (§1)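 Primary HTS: 8 RCC cell lines treated with 8 doses (up to 10 uM) of each library drug alone for 5 days; viability read by CellTiter-Glo and normalised to DMSO. GI50 was fitted with XLfit (4-parameter), AUC is the area under the dose-response curve, and minimum viability is the lowest fraction of DMSO viability across doses.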

769-P [2] = assay: GI50, drug alone; higher = less potent
Procedure: as §1

SN12C [3] = assay: GI50, drug alone; higher = less potent
Procedure: as §1

CAKI-1 [4] = assay: GI50, drug alone; higher = less potent
Procedure: as §1

UO-31 [5] = assay: GI50, drug alone; higher = less potent
Procedure: as §1

ACHN [6] = assay: GI50, drug alone; higher = less potent
Procedure: as §1

A498 [7] = assay: GI50, drug alone; higher = less potent
Procedure: as §1

786-O [8] = assay: GI50, drug alone; higher = less potent
Procedure: as §1

TK-10 [9] = assay: AUC of dose-response viability curve, drug alone (arbitrary (AUC of normalised viability)); higher = less growth inhibition
Procedure: as §1

769-P [10] = assay: as above
Procedure: as §1

SN12C [11] = assay: as above
Procedure: as §1

CAKI-1 [12] = assay: as above
Procedure: as §1

UO-31 [13] = assay: as above
Procedure: as §1

ACHN [14] = assay: as above
Procedure: as §1

A498 [15] = assay: as above
Procedure: as §1

786-O [16] = assay: as above
Procedure: as §1

TK-10 [17] = assay: minimum viability across doses, drug alone, relative to DMSO (fraction); higher = less growth inhibition
Procedure: as §1

769-P [18] = assay: as above
Procedure: as §1

SN12C [19] = assay: as above
Procedure: as §1

CAKI-1 [20] = assay: as above
Procedure: as §1

UO-31 [21] = assay: as above
Procedure: as §1

ACHN [22] = assay: as above
Procedure: as §1

A498 [23] = assay: as above
Procedure: as §1

786-O [24] = assay: as above
Procedure: as §1

Row | SMILES | GI50, drug alone (TK-10 [1]) | GI50, drug alone (769-P [2]) | GI50, drug alone (SN12C [3]) | GI50, drug alone (CAKI-1 [4]) | GI50, drug alone (UO-31 [5]) | GI50, drug alone (ACHN [6]) | GI50, drug alone (A498 [7]) | GI50, drug alone (786-O [8]) | AUC of dose-response viability curve (TK-10 [9]) | AUC of dose-response viability curve (769-P [10]) | AUC of dose-response viability curve (SN12C [11]) | AUC of dose-response viability curve (CAKI-1 [12]) | AUC of dose-response viability curve (UO-31 [13]) | AUC of dose-response viability curve (ACHN [14]) | AUC of dose-response viability curve (A498 [15]) | AUC of dose-response viability curve (786-O [16]) | minimum viability across doses (TK-10 [17]) | minimum viability across doses (769-P [18]) | minimum viability across doses (SN12C [19]) | minimum viability across doses (CAKI-1 [20]) | minimum viability across doses (UO-31 [21]) | minimum viability across doses (ACHN [22]) | minimum viability across doses (A498 [23]) | minimum viability across doses (786-O [24])
1 | Cc1ccc(NC(=O)c2cccc(C(C)(C)C#N)c2)cc1Nc1ccc2ncn(C)c(=O)c2c1 [AZ628] | 4670 nM | > 10000 nM | > 10000 nM | 4380 nM | 4500 nM | 2710 nM | > 10000 nM | > 10000 nM | 2.48 | 3.42 | 3.3 | 3.16 | 3.37 | 2.84 | 3.97 | 3.21 | 0.425 | 0.706 | 0.572 | 0.239 | 0.101 | 0.276 | 0.928 | 0.719
2 | Cc1cc(Nc2nc(N[C@@H](C)c3ccc(F)cc3)c(C#N)cc2F)n[nH]1 [AZ 960] | 1840 nM | 1230 nM | 1680 nM | 628 nM | 789 nM | 1070 nM | 3300 nM | 259 nM | 2.44 | 2.51 | 2.5 | 2.15 | 2.52 | 2.48 | 2.86 | 1.57 | 0.133 | 0.0819 | 0.252 | 0.0231 | 0.00541 | 0.129 | 0.391 | 0.00178
3 | CNC(=O)c1cccc(-c2ccc3c(N4CCOC[C@@H]4C)nc(N4CCOC[C@@H]4C)nc3n2)c1 [AZD2014] | 145 nM | 573 nM | 364 nM | 246 nM | 135 nM | 120 nM | 936 nM | 23.6 nM | 1.67 | 2.29 | 2.12 | 1.86 | 1.88 | 1.61 | 2.91 | 1.18 | 0.108 | 0.0959 | 0.177 | 0.0604 | 0.0166 | 0.0767 | 0.229 | 0.0673
4 | COc1cc(CCc2cc(NC(=O)c3ccc(N4C[C@@H](C)N[C@@H](C)C4)cc3)n[nH]2)cc(OC)c1 [AZD4547] | 9570 nM | > 10000 nM | 5180 nM | 1600 nM | 9970 nM | 2380 nM | > 10000 nM | 7220 nM | 3.11 | 3.57 | 3.1 | 2.59 | 5.09 | 2.69 | 3.96 | 3.17 | 0.51 | 0.9 | 0.256 | 0.222 | 0.68 | 0.165 | 0.877 | 0.202
5 | Cc1ncc(-c2ccnc(Nc3ccc(S(C)(=O)=O)cc3)n2)n1C(C)C [AZD5438] | 759 nM | 910 nM | 1480 nM | 1640 nM | 258 nM | 654 nM | 1230 nM | 186 nM | 2.49 | 2.6 | 2.45 | 2.97 | 2.19 | 2.39 | 2.44 | 1.66 | 0.142 | 0.0207 | 0.0183 | 0.131 | 0.00721 | 0.0146 | 0.00858 | 0.00317
6 | Cn1cnc2c(F)c(Nc3ccc(Br)cc3Cl)c(C(=O)NOCCO)cc21 [AZD6244 (Selumetinib)] | 3050 nM | 3950 nM | > 10000 nM | 1660 nM | > 10000 nM | 3000 nM | > 10000 nM | 1140 nM | 2.45 | 2.75 | 2.88 | 2.51 | 4 | 2.59 | 3.06 | 2.41 | 0.419 | 0.381 | 0.664 | 0.23 | 0.728 | 0.371 | 0.59 | 0.371
7 | NC(=O)Nc1cc(-c2cccc(F)c2)sc1C(=O)N[C@H]1CCCNC1 [AZD7762] | 68.5 nM | 175 nM | 408 nM | 156 nM | 81.8 nM | 17.3 nM | 308 nM | 34 nM | 1.39 | 1.82 | 2.07 | 1.78 | 2.1 | 0.873 | 2.53 | 1.1 | 0.0208 | 0.0526 | 0.00737 | 0.00629 | 0.00565 | 0.0318 | 0.0492 | 0.00636
8 | COc1ccc(-c2ccc3c(N4CCOC[C@@H]4C)nc(N4CCOC[C@@H]4C)nc3n2)cc1CO [AZD8055] | 85.1 nM | 171 nM | 110 nM | 119 nM | 69.1 nM | 41.5 nM | 370 nM | 9.59 nM | 1.48 | 1.76 | 1.62 | 1.48 | 1.29 | 1.25 | 2.4 | 0.809 | 0.0959 | 0.109 | 0.163 | 0.0607 | 0.00497 | 0.0903 | 0.229 | 0.00631
9 | Cc1cc(C(=O)NOCCO)c(Nc2ccc(I)cc2F)n(C)c1=O [AZD8330] | 123 nM | 385 nM | 865 nM | 134 nM | > 10000 nM | 140 nM | > 10000 nM | 57.3 nM | 1.74 | 2.04 | 2.36 | 1.73 | 3.95 | 1.69 | 3.63 | 1.78 | 0.317 | 0.281 | 0.386 | 0.209 | 0.527 | 0.299 | 0.789 | 0.31
